According to patent US20240307374A1, “FORMULATION OF FURIN INHIBITOR FOR INHALATION” (BP ASSET V, INC., priority 2021, published 2024):
Marks after values point to notes of the source that are not given here.

Legend:
Type in all cases: physicochemical
[1] = DVS (dynamic vapor sorption) moisture uptake; settings: for form change after DVS test (XRPD): XRPD before and after DVS
Method: (FIG. 5). Sample weight decreased rapidly when humidity decreased from 10% to 0%, which might be caused by loss of crystalline water.
DVS was measured via a SMS (Surface Measurement Systems) DVS Intrinsic.

[2] = Equilibrium solubility in pH buffers (3.0-8.0), 20% captisol and water; settings: 24 hrs; for S: solubility: RT
Method: Additional solids were added into the sample to generate suspension if clear solution obtained. The suspension was equilibrated via stirring (1000 rpm). The suspension was centrifuged to obtain precipitate and supernatants.
Solubility and pH were tested for the supernatants after filtration, and isolated precipitate was tested by XRPD.
(§1) • 1. pH=3.0 buffer (50 mM HCl+KCl): Weigh 365.39 mg KCl into a 100 mL volumetric flask (VF), and add 0.1 mL 1M HCl into the VF, and dilute to volume with water. • 2. pH=4.0 buffer (50 mM citrate): Weigh 56.74 mg citric acid and 60.18 mg trisodium citrate into a 10 mL volumetric flask, and dilute to volume with water. • 3. pH=5.0 buffer (50 mM citrate) Weigh 11.12 mg citric acid and 95.38 mg trisodium citrate into a 10 mL volumetric flask, and dilute to volume with water. • 4. pH=6.0 buffer (50 mM citrate) Weigh 11.04 mg citric acid and 130.2 mg trisodium citrate into a 10 mL volumetric flask, and dilute to volume with water. • 5. pH=6.0 buffer (50 mM phosphate) Weigh 8.7 mg Na2HPO4 and 52.6 mg NaH2PO4 into a 10 mL volumetric flask, and dilute to volume with water. • 6. pH=7.0 buffer (50 mM phosphate) Weigh 23.47 mg Na2HPO4 and 43.34 mg NaH2PO4into a 10 mL volumetric flask, and dilute to volume with water. • 7. pH=8.0 buffer (50 mM phosphate) Weigh 31.64 mg Na2HPO4 and 67.18 mg NaH2PO4into a 10 mL volumetric flask, and dilute to volume with water.

Grinding stability = settings: ~30 mg ground manually in a mortar for about 5 minutes
[3] = Equilibrium solubility in pH buffers (pH 4.0-6.0) with pH adjustment; settings: for S: solubility: RT, with pH adjustment; for pH before adjustment (in brackets): 24 hours
Method: In details, ˜5 mg of solids were suspended into 1 mL of each medium with dosing conc. at ˜5 mg/mL. Additional solids were added into the sample to generate suspension if clear solution was obtained. The suspension was equilibrated via stirring (1000 rpm) for 24 hours. The pH of the suspension was adjusted when the final pH shifted above 0.3, and the samples were stirred for another 1.5 hours after pH adjustment. The suspension was centrifuged to obtain precipitate and supernatants. Solubility, purity and pH were tested for the supernatants after filtration, and isolated precipitate was tested by XRPD.
as §1

[4] = pH = 3.0 buffer (50 mM HCl + KCl)
[5] = pH = 4.0 buffer (50 mM citrate)
[6] = pH = 5.0 buffer (50 mM citrate)
[7] = pH = 6.0 buffer (50 mM citrate)
[8] = pH = 7.0 buffer (50 mM phosphate)
[9] = pH = 8.0 buffer (50 mM phosphate)
[10] = pH = 6.0 buffer (50 mM phosphate)

## CC(=O)NCC1CCN(Cc2cc(Oc3ccc(N4CCN(CCC(=O)O)CC4)nc3)nc(-c3cc(Cl)cc(Cl)c3)c2)CC1 [Fumarate Type A]
[1]; 25° C., from 30% RH to 80% RH
  Moisture Uptake (DVS): 2.5 (from 30% RH to 80% RH)
[1]
  form change after DVS test (XRPD): crystallinity of fumarate Type A decreased
[2]; 20% Captisol (pH = 5.0, w/v)
  pH of supernatant (final pH): 4.3
  S: solubility: 29.6 mg/mL
[2]; H2O
  FC: form change (XRPD of precipitate): 4 (1/2/3/4/5: new Form 1/2/3/4/5)
  pH of supernatant (final pH): 3.8
  S: solubility: 1.85 mg/mL
[2]; [4]
  FC: form change (XRPD of precipitate): 5 (1/2/3/4/5: new Form 1/2/3/4/5)
  pH of supernatant (final pH): 3.5
  S: solubility: 0.65 mg/mL
[2]; [5]
  FC: form change (XRPD of precipitate): 4 (1/2/3/4/5: new Form 1/2/3/4/5)
  pH of supernatant (final pH): 4.1
  S: solubility: 3.45* mg/mL
[2]; [6]
  FC: form change (XRPD of precipitate): 4 (1/2/3/4/5: new Form 1/2/3/4/5)
  pH of supernatant (final pH): 4.8
  S: solubility: 7.79 mg/mL
[2]; [7]
  FC: form change (XRPD of precipitate): 4 (1/2/3/4/5: new Form 1/2/3/4/5)
  pH of supernatant (final pH): 5.1
  S: solubility: 20.6 mg/mL
[2]; [8]
  pH of supernatant (final pH): 6.6
  S: solubility: 0.05 mg/mL
[2]; [9]
  pH of supernatant (final pH): 7.2
  S: solubility: 0.02 mg/mL
Grinding stability
  crystallinity after grinding (XRPD): decreased after grinding
[3]; [5]
  Area % (purity of supernatant): 99.3 Area %
  FC: form change (XRPD of precipitate): 4 (3/4/6/7/8: new Form 3/4/6/7/8)
  pH (final, after adjustment where adjusted): 4.0
  S: solubility: 3.04 mg/mL
[3]; [6]
  Area % (purity of supernatant): 99.4 Area %
  FC: form change (XRPD of precipitate): 4 (3/4/6/7/8: new Form 3/4/6/7/8)
  pH (final, after adjustment where adjusted): 4.9*
  pH before adjustment (in brackets): (4.1)
  S: solubility: 19.3 mg/mL
[3]; [7]
  Area % (purity of supernatant): 98.6 Area %
  FC: form change (XRPD of precipitate): 7 (3/4/6/7/8: new Form 3/4/6/7/8)
  pH (final, after adjustment where adjusted): 6.1*
  pH before adjustment (in brackets): (5.0)
  S: solubility: 0.24 mg/mL
[3]; [10]
  Area % (purity of supernatant): 95.6 Area %
  pH (final, after adjustment where adjusted): 6.2*
  pH before adjustment (in brackets): (4.6)
  S: solubility: 0.09 mg/mL

## CC(=O)NCC1CCN(Cc2cc(Oc3ccc(N4CCN(CCC(=O)O)CC4)nc3)nc(-c3cc(Cl)cc(Cl)c3)c2)CC1 [Sulfate Type B]
[1]
  form change after DVS test (XRPD): Two additional peaks
[2]; 20% Captisol (pH = 5.0, w/v)
  pH of supernatant (final pH): 2.6
  S: solubility: >44.5^1 mg/mL
[2]; H2O
  FC: form change (XRPD of precipitate): N (N: solid form not changed)
  pH of supernatant (final pH): 2.4
  S: solubility: 1.97 mg/mL
[2]; [4]
  FC: form change (XRPD of precipitate): 1 (1/2/3/4/5: new Form 1/2/3/4/5)
  pH of supernatant (final pH): 2.3
  S: solubility: 8.00 mg/mL
[2]; [5]
  FC: form change (XRPD of precipitate): Low (Low: low crystallinity)
  pH of supernatant (final pH): 3.8
  S: solubility: 2.33 mg/mL
[2]; [6]
  FC: form change (XRPD of precipitate): 3 (1/2/3/4/5: new Form 1/2/3/4/5)
  pH of supernatant (final pH): 4.4
  S: solubility: 1.66* mg/mL
[2]; [7]
  FC: form change (XRPD of precipitate): 3 (1/2/3/4/5: new Form 1/2/3/4/5)
  pH of supernatant (final pH): 4.3
  S: solubility: 0.93* mg/mL
[2]; [8]
  FC: form change (XRPD of precipitate): 2 (1/2/3/4/5: new Form 1/2/3/4/5)
  pH of supernatant (final pH): 5.6
  S: solubility: 0.61* mg/mL
[2]; [9]
  pH of supernatant (final pH): 6.9
  S: solubility: 0.04* mg/mL
Grinding stability
  crystallinity after grinding (XRPD): decreased after grinding
[3]; [5]
  Area % (purity of supernatant): 99.2 Area %
  FC: form change (XRPD of precipitate): Low (Low; low crystallinity)
  pH (final, after adjustment where adjusted): 3.9
  S: solubility: 2.29 mg/mL
[3]; [6]
  Area % (purity of supernatant): 99.4 Area %
  FC: form change (XRPD of precipitate): 3 (3/4/6/7/8: new Form 3/4/6/7/8)
  pH (final, after adjustment where adjusted): 5.0*
  pH before adjustment (in brackets): (4.5)
  S: solubility: 6.82^# mg/mL
[3]; [7]
  Area % (purity of supernatant): 92.6 Area %
  FC: form change (XRPD of precipitate): 6 (3/4/6/7/8: new Form 3/4/6/7/8)
  pH (final, after adjustment where adjusted): 6.1*
  pH before adjustment (in brackets): (4.4)
  S: solubility: 0.07 mg/mL
[3]; [10]
  Area % (purity of supernatant): 88.2 Area %
  pH (final, after adjustment where adjusted): 6.2*
  pH before adjustment (in brackets): (3.0)
  S: solubility: 0.06 mg/mL
